Reference: US6063797A, “γ-RAR antagonist ligand or α-RAR agonist ligand as an apoptosis inhibitor” (priority 1995, dated 2000)
pKd: −log10 of the molar value. Where two headings read alike, the source gives them in different places. One block for each molecule: values may come before it.

Assays:
RAR-α = target: T1, RAR-α (Homo sapiens, UniProt P10276); assay: Dissociation constant for RAR-α receptors; format: binding
T1 sequence (P10276 1-462): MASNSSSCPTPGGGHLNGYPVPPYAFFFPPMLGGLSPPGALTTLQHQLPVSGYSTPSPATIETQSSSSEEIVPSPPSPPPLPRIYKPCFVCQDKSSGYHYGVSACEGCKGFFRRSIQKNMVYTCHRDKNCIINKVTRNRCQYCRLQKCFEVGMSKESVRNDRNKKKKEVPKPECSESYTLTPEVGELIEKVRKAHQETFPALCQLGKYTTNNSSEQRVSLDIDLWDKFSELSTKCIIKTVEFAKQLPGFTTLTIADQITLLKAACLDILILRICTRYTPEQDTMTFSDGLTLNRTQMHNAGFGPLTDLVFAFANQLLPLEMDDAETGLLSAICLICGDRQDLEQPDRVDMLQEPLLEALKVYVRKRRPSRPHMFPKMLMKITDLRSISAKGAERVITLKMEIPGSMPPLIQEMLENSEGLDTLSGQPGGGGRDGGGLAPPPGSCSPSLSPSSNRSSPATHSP

thymocytes [1] = assay: Quantitative DNA fragmentation (apoptosis) in thymocytes, retinoid-induced (Example 1); format: cell-based, mouse (NMRI); conditions: for % of DNA fragments: 6 h
Experimental: (§1) Thymus glands from untreated 4-week old NMRI male mice (sold by LATI, Godollo, Hungary) are used as the starting material for preparing thymocyte suspensions. The medium employed is Sigma RPMI 1640 medium which is supplemented with Gibco foetal calf serum, 2 mM glutamine, 100 IU of penicillin and 100 μg of streptomycin/ml. The thymocytes are then washed and diluted, in order to obtain a final concentration of 10^7 cells/ml, before incubating them at 37° C. in a humidified incubator under an atmosphere of 5% CO2 and 95% air. The death of the cells is measured by the uptake of trypan blue.
(§2) The thymocytes are incubated in 24 wells together with various compounds to be tested. After 6 hours of incubation, 0.8 ml volumes of cell suspensions were lysed by the addition of 0.7 ml of lysis buffer containing 0.5% (v/v) Triton X-100, 10 mM Tris, 20 mM EDTA, pH 8.0, before being centrifuged at 13,000 g for 15 minutes.
(§3) Quantitative analysis of the DNA: the DNA contained in the supernatant (the fragments) and the pellet (intact chromatin) was precipitated with an equivalent quantity of 10% trichloroacetic acid, resuspended in 5% trichloroacetic acid and then quantified using the diphenylamine reagent (Burton, K. (1956) Biochem. J., 62, 315-322).
Qualitative analysis of the DNA: in parallel, the supernatant was precipitated overnight in ethanol containing […]. The pellets are redissolved in a buffer containing 10 mM Tris, 1 mM EDTA, pH 8.0, after which the solutions are treated with RNase and sequentially extracted with an equal volume of phenol and chloroform/isoamyl alcohol (24/1); the DNA is then precipitated in ethanol before electrophoresis for 3 hours at 60 V in a 1.8% agarose gel. The DNA fragments were then visualized by UV after the gel had been stained with ethidium bromide. The gels obtained display the picture of a ladder of DNA fragments which are multiples of from 180 to 200 base pairs and which are typical for an apoptosis induction. Throughout the experiments, the degree of fragmentation correlates with the number of cells which are dead and which are positive to the trypan blue test.
(§4) The percentage of DNA fragment in this table corresponds to the difference between the percentage of DNA fragment obtained in the treated thymocytes and the percentage of DNA fragment obtained in the untreated thymocytes (basal rate of apoptosis for these thymocytes).

thymocytes [2] = assay: DNA fragmentation (apoptosis) in thymocytes induced by CD437 (Example 2); format: cell-based, mouse (NMRI); conditions: for % of DNA fragments: difference treated minus untreated
Experimental: as §1, §2, §3
The procedure is the same as in the preceding example, except that the nature of the ligands to be tested, and their concentration, are altered.
as §4

thymocytes [3] = assay: DNA fragmentation (apoptosis) in thymocytes induced by activating a T-cell receptor with phorbol dibutyrate + Ca++ ionophore (Example 3); format: cell-based, mouse (NMRI); conditions: for % of DNA fragments: difference treated minus untreated
thymus = format: in vivo, mouse (NMRI); conditions: for Weight of the thymus: 48 h, control 98.2 ± 19.6
Experimental: 4-week-old male NMRI mice (sold by LATI, Godollo, Hungary) were used. […] For the control, male mice were treated by a single intraperitoneal injection of a mixture of 40 μl of DMSO and 0.5 ml of 20% ethanol. The CD2665 was also tested alone under the same conditions as before and in a quantity of 0.5 mg. The weight of the thymus was determined after 48 hours of treatment, and the results are assembled in Table 4 below.

RAR-γ = target: T2, RAR-γ (Homo sapiens, UniProt P13631); assay: Dissociation constant for RAR-γ receptors; format: binding
T2 sequence (P13631 1-454): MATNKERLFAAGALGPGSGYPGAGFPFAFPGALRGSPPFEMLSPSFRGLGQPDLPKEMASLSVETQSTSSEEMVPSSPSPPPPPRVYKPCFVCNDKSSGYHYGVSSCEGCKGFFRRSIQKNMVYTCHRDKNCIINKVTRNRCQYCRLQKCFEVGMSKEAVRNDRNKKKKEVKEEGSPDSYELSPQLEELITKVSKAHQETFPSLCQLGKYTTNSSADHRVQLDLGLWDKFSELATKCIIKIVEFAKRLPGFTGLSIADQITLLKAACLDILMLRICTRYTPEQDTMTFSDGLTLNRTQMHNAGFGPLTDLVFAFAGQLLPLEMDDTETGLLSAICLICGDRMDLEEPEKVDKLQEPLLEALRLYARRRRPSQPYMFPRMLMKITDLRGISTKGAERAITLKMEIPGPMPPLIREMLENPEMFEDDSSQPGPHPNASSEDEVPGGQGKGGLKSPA

[4] = 0.5 mg single intraperitoneal injection, alone

- dissociation constant for RAR-α lower than dissociation constant for RAR-γ (fold) (RAR-α; RAR-α versus RAR-γ): at least 20 times
SMILES: CC1(C)CCC(C)(C)c2cc(C(=O)Nc3ccc(C(=O)O)c(O)c3)ccc21 [2-hydroxy-4-(5,5,8,8-tetramethyl-5,6,7,8-tetrahydronaphthalene-2-carboxamido)benzoic acid]

SMILES: CC1=C(/C=C/C(C)=C\C=C\C(C)=C\C(=O)O)C(C)(C)CCC1 [9-cisRA, 9-cis-retinoic acid, reference compound]
- % of DNA fragments (thymocytes [1]; 9-cisRA 1000 nM, difference treated minus untreated thymocytes): 19%

SMILES: CC1=C(/C=C/C(C)=C/C=C/C(C)=C/C(=O)O)C(C)(C)CCC1 [ATRA, all-trans retinoic acid, reference compound]
- % of DNA fragments (thymocytes [1]; ATRA 5000 nM, difference treated minus untreated thymocytes): 17%

SMILES: CC1(C)CCC(C)(C)c2cc(C(=O)Nc3ccc(C(=O)O)cc3)ccc21 [CD336, 4-((5,6,7,8-tetrahydro-5,5,8,8-tetramethyl-2-naphthalenyl)carboxamido)benzoic acid]
- % of DNA fragments (thymocytes [2]; CD336 alone 10^-6 M): 0%
- % of DNA fragments (thymocytes [2]; CD336 alone 10^-7 M): 0%
- % of DNA fragments (thymocytes [2]; CD336 alone 10^-8 M): 0%
- % of DNA fragments (thymocytes [2]; CD437 + CD336 10^-6 M): 0%
- % of DNA fragments (thymocytes [2]; CD437 + CD336 10^-7 M): 5%
- % of DNA fragments (thymocytes [2]; CD437 + CD336 10^-8 M): 17%
- inhibition of apoptosis induced by CD437 (thymocytes [2]; conclusion from Table 2): inhibited in a dose-dependent manner
- % of DNA fragments (thymocytes [3]; (P + C) + CD336 30 nM): 9.6%
- % of DNA fragments (thymocytes [3]; (P + C) + CD336 300 nM): 8.4%
- % of DNA fragments (thymocytes [3]; (P + C) + CD336 3000 nM): 1.1%
- % of DNA fragments (thymocytes [3]; CD336 alone 30 nM): 0%
- % of DNA fragments (thymocytes [3]; CD336 alone 300 nM): 0%
- % of DNA fragments (thymocytes [3]; CD336 alone 3000 nM): 0%
- inhibition of apoptosis induced by P+C (thymocytes [3]; conclusion from Table 3): inhibited in a dose-dependent manner

SMILES: O=C(O)c1ccc2cc(-c3ccc(O)c(C45CC6CC(CC(C6)C4)C5)c3)ccc2c1 [CD437, reference compound]
- % of DNA fragments (thymocytes [2]; CD437 alone 0.3 × 10^-6 M): 17%
- Weight of the thymus (thymus; [4]): 31.3 ± 13.6 mg
- involution of the thymus (thymus; alone, conclusion from Table 4): involution of the thymus is observed
- % of DNA fragments (thymocytes [1]; CD437 300 nM, difference treated minus untreated thymocytes): 24%

- pKd (RAR-α): < 5.65
- pKd (RAR-γ): 6.96
- dissociation constant for RAR-γ lower than dissociation constant for RAR-α (fold) (RAR-γ; RAR-γ versus RAR-α): at least 20 times
SMILES: COCCOCOc1cc2ccc(-c3ccc(C(=O)O)cc3)cc2cc1C12CC3CC(CC(C3)C1)C2 [CD2665, 4-[7-(1-adamantyl)-6-methoxyethoxymethoxy-2-naphthyl]benzoic acid]
- Weight of the thymus (thymus; [4]): 107.6 ± 21.7 mg
- Weight of the thymus (thymus; CD2665 5 mg + CD437 0.5 mg, single intraperitoneal injection): 63.3 ± 9.1 mg
- involution of the thymus (thymus; alone, conclusion from Table 4): no significant change is observed
- involution of the thymus (thymus; combination of CD2665 and CD437, compared with CD437 alone): involution of the thymus which is much less marked than that observed with CD437 alone
- % of DNA fragments (thymocytes [1]; CD2665 200 nM + 9-cisRA 1000 nM, difference treated minus untreated): 1.5%
- % of DNA fragments (thymocytes [1]; CD2665 200 nM + ATRA 5000 nM, difference treated minus untreated): 0%
- % of DNA fragments (thymocytes [1]; CD2665 200 nM + CD437 300 nM, difference treated minus untreated): 1.0%
- % of DNA fragments (thymocytes [1]; CD2665 200 nM alone, difference treated minus untreated thymocytes): 0.5%
- inhibition of apoptosis induced by ATRA, 9-cisRA and CD437 (thymocytes [1]; conclusion from Table 1): inhibited
